Data: PubChem BioAssay AID256 (DTP/NCI, 2004)
Values joined by “and” are separate entries in the source; they are usually repeats but may differ in a detail not shown here. Identical values can stand only once. Inconclusive results and toxic doses are left out. How the source made its calls: active means survival T/C of 150% or more; inactive means T/C below 125% in these data.

System: CD2F1 mice, L1210 leukemia ip, survival T/C
Assay: NCI In Vivo Anticancer Drug Screen. Data for tumor model L1210 Leukemia (intraperitoneal) in CD2F1 (CDF1) mice
Conditions: endpoint: mean survival time, higher = longer survival
In short: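 In this screen, transplantable tumors were grown in mice given either the compound or its vehicle. Results were expressed as the treated measurement relative to the control measurement.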

[1] = dose: 50.0 mg/kg/injection, schedule: Q01DX001 (ip), vehicle: saline with Tween-80
[2] = dose: 100.0 mg/kg/injection, schedule: Q01DX001 (ip), vehicle: saline with Tween-80
[3] = dose: 200.0 mg/kg/injection, schedule: Q01DX001 (ip), vehicle: saline with Tween-80
[4] = dose: 25.0 mg/kg/injection, schedule: Q01DX005 (ip), vehicle: water
[5] = dose: 50.0 mg/kg/injection, schedule: Q01DX005 (ip), vehicle: water
[6] = dose: 25.0 mg/kg/injection, schedule: Q01DX009 (ip), vehicle: saline with Tween-80
[7] = dose: 100.0 mg/kg/injection, schedule: Q04DX003 (ip), vehicle: saline with Tween-80
[8] = dose: 200.0 mg/kg/injection, schedule: Q04DX003 (ip), vehicle: saline with Tween-80
[9] = dose: 100.0 mg/kg/injection, schedule: Q01DX009 (ip), vehicle: saline with Tween-80
[10] = dose: 200.0 mg/kg/injection, schedule: Q01DX009 (ip), vehicle: saline with Tween-80
[11] = dose: 400.0 mg/kg/injection, schedule: Q01DX009 (ip), vehicle: saline with Tween-80
[12] = dose: 400.0 mg/kg/injection, schedule: Q04DX003 (ip), vehicle: saline with Tween-80
[13] = dose: 50.0 mg/kg/injection, schedule: Q01DX009 (ip), vehicle: saline with Tween-80

Measured: T/C

CCOC(=O)/C=C(/Nc1ccc(S(=O)(=O)F)cc1)c1ccccc1
inactive: dose: 100.0 mg/kg/injection, schedule: Q01DX009 (ip), vehicle: Klucel (hydroxypropylcellulose) (HPC) 100 % of control | dose: 200.0 mg/kg/injection, schedule: Q01DX009 (ip), vehicle: Klucel (hydroxypropylcellulose) (HPC) 100 % of control | dose: 400.0 mg/kg/injection, schedule: Q01DX009 (ip), vehicle: Klucel (hydroxypropylcellulose) (HPC) 97 % of control

O=C(OC1=CCc2ccccc21)c1ccc([N+](=O)[O-])cc1
inactive: [1] 101 % of control | [2] 96 % of control and 97 % of control | [3] 121 % of control and 96 % of control | dose: 400.0 mg/kg/injection, schedule: Q01DX001 (ip), vehicle: saline with Tween-80 95 % of control and 97 % of control

OCC1OC(n2ccc3c2ncn2ncnc32)C(O)C1O (stereo unspecified)
inactive: dose: 6.25 mg/kg/injection, schedule: Q01DX005 (ip), vehicle: water 114 % of control | dose: 12.5 mg/kg/injection, schedule: Q01DX005 (ip), vehicle: water 114 % of control | [4] 117 % of control | [5] 88 % of control and 106 % of control

CCCCCCCCCCCCCCCCCCN1CCCN(CCCCCCCCCCCCCCCCCC)CC1
inactive: [6] 107 % of control and 111 % of control | dose: 25.0 mg/kg/injection, schedule: Q04DX002 (ip), vehicle: saline with Tween-80 93 % of control and 98 % of control | [1] 98 % of control | dose: 50.0 mg/kg/injection, schedule: Q01DX009 (ip), vehicle: other 93 % of control and 95 % of control | dose: 50.0 mg/kg/injection, schedule: Q04DX002 (ip), vehicle: saline with Tween-80 89 % of control and 97 % of control | dose: 50.0 mg/kg/injection, schedule: Q04DX003 (ip), vehicle: saline with Tween-80 104 % of control | dose: 100.0 mg/kg/injection, schedule: Q01DX001 (ip), vehicle: other 94 % of control | [2] 91 % of control | dose: 100.0 mg/kg/injection, schedule: Q01DX009 (ip), vehicle: other 115 % of control and 101 % of control | dose: 100.0 mg/kg/injection, schedule: Q04DX002 (ip), vehicle: other 94 % of control and 96 % of control | dose: 100.0 mg/kg/injection, schedule: Q04DX003 (ip), vehicle: other 93 % of control | [7] 89 % of control | dose: 200.0 mg/kg/injection, schedule: Q01DX001 (ip), vehicle: other 98 % of control | [3] 95 % of control | dose: 200.0 mg/kg/injection, schedule: Q01DX009 (ip), vehicle: other 102 % of control and 108 % of control | dose: 200.0 mg/kg/injection, schedule: Q04DX002 (ip), vehicle: other 96 % of control and 105 % of control | dose: 200.0 mg/kg/injection, schedule: Q04DX003 (ip), vehicle: other 96 % of control | [8] 101 % of control | dose: 400.0 mg/kg/injection, schedule: Q01DX001 (ip), vehicle: other 110 % of control | dose: 400.0 mg/kg/injection, schedule: Q01DX009 (ip), vehicle: other 101 % of control and 104 % of control | dose: 400.0 mg/kg/injection, schedule: Q04DX002 (ip), vehicle: other 105 % of control | dose: 400.0 mg/kg/injection, schedule: Q04DX003 (ip), vehicle: other 100 % of control

O=C(O)c1cc(N=Nc2ccc3ccccc3c2)ccc1O
inactive: [9] 103 % of control | [10] 106 % of control | [11] 98 % of control

C1CSC(=[N+]2CC[N+](=C3SCCS3)CC2)S1
inactive: dose: 12.5 mg/kg/injection, schedule: Q01DX009 (ip), vehicle: saline 101 % of control | dose: 25.0 mg/kg/injection, schedule: Q01DX009 (ip), vehicle: saline 104 % of control | dose: 25.0 mg/kg/injection, schedule: Q04DX002 (ip), vehicle: saline 100 % of control | dose: 50.0 mg/kg/injection, schedule: Q04DX002 (ip), vehicle: saline 88 % of control

O=C(Nc1ccc(Nc2ccc(NC(=O)c3ccccc3)c3c2C(=O)c2ccccc2C3=O)c2c1C(=O)c1ccccc1C2=O)c1ccccc1
inactive: [9] 95 % of control | [7] 108 % of control | [10] 95 % of control | [8] 100 % of control | [11] 100 % of control | [12] 102 % of control

C[C@@H](C[P+](c1ccccc1)(c1ccccc1)c1ccccc1)[C@](OC(=O)c1ccccc1)(C(=O)c1ccccc1)c1ccccc1
inactive: dose: 6.25 mg/kg/injection, schedule: Q01DX001 (ip), vehicle: saline with Tween-80 100 % of control | dose: 12.5 mg/kg/injection, schedule: Q01DX001 (ip), vehicle: saline with Tween-80 105 % of control | dose: 25.0 mg/kg/injection, schedule: Q01DX001 (ip), vehicle: saline with Tween-80 109 % of control

CN(C)N=Nc1ccccc1C(=O)NCC(F)(F)F
inactive: dose: 18.75 mg/kg/injection, schedule: Q01DX009 (ip), vehicle: Klucel (hydroxypropylcellulose) (HPC) 96 % of control and 106 % of control | dose: 37.5 mg/kg/injection, schedule: Q01DX009 (ip), vehicle: Klucel (hydroxypropylcellulose) (HPC) 93 % of control and 106 % of control | dose: 75.0 mg/kg/injection, schedule: Q01DX009 (ip), vehicle: Klucel (hydroxypropylcellulose) (HPC) 96 % of control and 100 % of control | dose: 150.0 mg/kg/injection, schedule: Q01DX009 (ip), vehicle: Klucel (hydroxypropylcellulose) (HPC) 100 % of control and 102 % of control | dose: 300.0 mg/kg/injection, schedule: Q01DX009 (ip), vehicle: Klucel (hydroxypropylcellulose) (HPC) 100 % of control and 103 % of control

CC(=O)N(C)c1ccc(NC(=O)Nc2ccc(C)c([N+](=O)[O-])c2)cc1
inactive: [13] 102 % of control | [9] 94 % of control | [10] 90 % of control

COc1ccc(NC(=O)CC(C)=O)cc1
inactive: [9] 97 % of control | [10] 103 % of control | [11] 100 % of control

COC(=O)CCC(=O)c1ccccc1C
inactive: dose: 100.0 mg/kg/injection, schedule: Q04DX003 (ip), vehicle: acetone 100 % of control | dose: 200.0 mg/kg/injection, schedule: Q04DX003 (ip), vehicle: acetone 100 % of control

CCC1(O)CC2CN(CCc3c([nH]c4ccccc34)C(C(=O)OC)(c3cc4c(cc3OC)N(C)C3C(O)(C(=O)NCCO)C(O)C5(CC)C=CCN6CCC43C65)C2)C1 (stereo unspecified)
inactive: dose: 0.36 mg/kg/injection, schedule: Q01DX009 (ip), vehicle: water 110 % of control | dose: 0.52 mg/kg/injection, schedule: Q04DX003 (ip), vehicle: water 108 % of control | dose: 0.86 mg/kg/injection, schedule: Q04DX003 (ip), vehicle: water 119 % of control | dose: 1.44 mg/kg/injection, schedule: Q04DX003 (ip), vehicle: water 118 % of control | dose: 2.4 mg/kg/injection, schedule: Q04DX003 (ip), vehicle: water 113 % of control

COC1OC(C(O)CO)C(O)C(O)C1O (stereo unspecified)
inactive: dose: 100.0 mg/kg/injection, schedule: Q01DX001 (ip), vehicle: saline 105 % of control | [7] 104 % of control | dose: 200.0 mg/kg/injection, schedule: Q01DX001 (ip), vehicle: saline 96 % of control | [8] 103 % of control | dose: 400.0 mg/kg/injection, schedule: Q01DX001 (ip), vehicle: saline 102 % of control | [12] 98 % of control

CC(=O)Nc1nnc([N+](=O)[O-])s1
inactive: [7] 95 % of control | [8] 91 % of control | [12] 94 % of control

Cc1ccc(S(=O)(=O)Oc2ccc(Br)cc2)cc1
inactive: dose: 100.0 mg/kg/injection, schedule: Q04DX002 (ip), vehicle: saline with Tween-80 96 % of control | dose: 200.0 mg/kg/injection, schedule: Q04DX002 (ip), vehicle: saline with Tween-80 86 % of control

CC1=C(Br)C(=O)C(Br)=C(Br)C1=O
inactive: [6] 96 % of control

Cc1ccc(S(=O)(=O)OC2CNP(=O)(N(CCCl)CCCl)OC2)cc1 (stereo unspecified)
inactive: dose: 25.0 mg/kg/injection, schedule: Q01DX001 (ip), vehicle: DMSO 96 % of control | dose: 50.0 mg/kg/injection, schedule: Q01DX001 (ip), vehicle: DMSO 100 % of control | dose: 100.0 mg/kg/injection, schedule: Q01DX001 (ip), vehicle: DMSO 94 % of control | dose: 200.0 mg/kg/injection, schedule: Q01DX001 (ip), vehicle: DMSO 100 % of control | dose: 400.0 mg/kg/injection, schedule: Q01DX001 (ip), vehicle: DMSO 98 % of control | dose: 800.0 mg/kg/injection, schedule: Q01DX001 (ip), vehicle: DMSO 91 % of control

Cc1ccc(S(=O)(=O)/C=C(\C=C/c2ccccc2)c2ccccc2)cc1
inactive: [13] 103 % of control | [9] 103 % of control | [10] 106 % of control

COC(=O)C(N)CSCSCc1ccccc1 (stereo unspecified)
inactive: [4] 101 % of control | [5] 93 % of control | dose: 100.0 mg/kg/injection, schedule: Q01DX005 (ip), vehicle: water 93 % of control
